Columns and labels:
[1] = Inhibition of F-actin depolymerization
[2] = Cytotoxicity against human HeLaS3 cells; type: functional, cell-based; details: HeLa S3

IC50 [1] [µM] | SMILES | IC50 [2] [mg/L]
7.9 | CC(=O)O[C@@H]([C@@H](C)[C@@H](CC[C@H](C)[C@H](O)[C@H](C)[C@@H](O)CCO)OC(=O)[C@H](C)N(C)C)[C@H](C)/C=C/N(C)C=O | > 10
210 | C/C=C/[C@@H](OC(=O)[C@H](C)N(C)C)[C@H](C)[C@H](OC(C)=O)[C@H](C)/C=C/N(C)C=O | > 10

More lines, now with the values behind:

SMILES | IC50 [1] [µM] | IC50 [2] [mg/L]
CC(=O)O[C@@H]([C@@H](C)[C@@H](/C=C/CCCCc1ccccc1)OC(=O)[C@H](C)N(C)C)[C@H](C)/C=C/N(C)C=O | 21 | > 10
CC(=O)O[C@@H]([C@@H](C)[C@@H](/C=C/CCc1ccccc1)OC(=O)[C@H](C)N(C)C)[C@H](C)/C=C/N(C)C=O | 47 | > 10
CC(=O)O[C@@H]([C@@H](C)[C@@H](/C=C/c1ccccc1)OC(=O)[C@H](C)N(C)C)[C@H](C)/C=C/N(C)C=O | 85 | > 10
